Data published in patent US20240336617A1, “Substituted Bimane Compounds and Methods of Use Thereof” (THE TRUSTEES OF THE UNIVERSITY OF PENNSYLVANIA, priority 2023, published 2024).

Legend:
[1] = target: T1, αS fibrils (Homo sapiens, UniProt P37840); test: Absorbance spectra with αS fibrils; format: physicochemical; conditions: for λabs / λabs, maximum absorption wavelength: dye 10 μM; for ε / E, molar absorptivity (ε): measured at λabs; for λabs, maximum absorption wavelength / E, molar absorptivity (ε): presence of αS PFFs (+); for λabs, maximum absorption wavelength: PFFs 50 μM, mixture of bound and unbound dye; for increase in molar absorptivity with αS fibrils: presence versus absence of αS fibrils
T1 construct: intein-His6 (C, cleaved yes); made in house; host or cells: Escherichia coli BL21
Description: (§1) Absorption measurements were performed using Thermo Scientific Genesys 150 UV Vis spectrometer. Absorption spectra of 10 μM probes (concentrated stock solution prepared as 10 mM in DMSO) (7j, 7k, 7l, and 7m) in PBS buffer were measured in the absence and presence of 50 μM αS fibrils (stock solution 100 μM αS fibrils in PBS buffer).
as §1, with “(5j” for “(7j, 7k, 7l,”, “5k)” for “7m)”

[2] = target: T1, αS fibrils; test: Excitation spectra with αS fibrils; format: physicochemical; conditions: dye 10 μM; for λex, maximum excitation wavelength: presence of αS PFFs (+), PFFs 50 μM, represents the bound form of dye; for λex: presence of αS PFFs, PFF 50 μM
Description: Excitation spectral measurements were performed using a PTI QuantaMaster™ 40 fluorescence spectrometer. Excitation spectra of 10 μM probes (concentrated stock solution prepared as 10 mM in DMSO) (7j, 7k, 7l, and 7m) in PBS buffer were measured in the absence and presence of 50 μM αS fibrils (stock solution 100 μM αS fibrils in PBS buffer).
Excitation spectra with αS fibrils. Excitation spectral measurements were performed using a PTI QuantaMaster 40 fluorescence spectrometer. Excitation spectra of 10 μM probes (concentrated stock solution prepared as 10 mM in DMSO) (5j and 5k) in PBS buffer were measured in the absence and presence of 50 μM αS fibrils (stock solution 100 μM αS fibrils in PBS buffer).

[3] = Absorbance measurements (UV-Vis); conditions: for Absorbance Wavelength: ACN:PBS buffer (50:50 v/v); for λabs, maximum absorption wavelength: absence of αS PFFs (−), dye 10 μM; for λabs: ACN/PBS
[4] = Viscosity measurements (glycerol mixtures); format: physicochemical
Description: As a representative example, the viscosity of 7k (25 μM, 10 mM stock in DMSO) in glycerol/methanol mixtures were measured, varying the glycerol percentage 0-99%.
Viscosity measurements. As a representative example, we have measured the viscosity of 5k (25 μM, 10 mM stock in DMSO) in glycerol/ethylene glycol (G/EG) mixtures, varying the glycerol percentage 0-90%. Then, the emission spectra were recorded using a PTI QuantaMaster™ 40 fluorescence spectrometer by excitation with 385 nm wavelength.

[5] = target: T1, αS fibrils; test: Probe binding (Kd) measurements with αS fibrils; conditions: 100 μM αS PFFs; probe 10 nM-10 μM
Description: (§2) αS fibrils (100 μM) in PBS buffer were incubated with varying 7k, 7l, and 7m concentrations (0, 0.01, 0.1, 0.5, 1, 3, 5, 7, and 10 μM) from concentrated 10 mM DMSO stock solutions in Greiner 96 well flat black […] plates at 37° C. with shaking at 500 rpm for 15 min in an IKA MS3 control orbital shaker (Wilmington, NC, USA). After 15 min incubation, fluorescence intensity measurements were obtained with a Tecan Spark plate reader (Mannedorf, Switzerland) by excitation with λex/λem=424/570 nm for 7k, λex/λem=463/580 nm for 7l, and λex/λem=484/620 nm for 7m, using the following parameters: excitation and emission bandwidth 5 nm, delay time 0 μs, integration time 40 μs. Averages and standard deviations were calculated from at least 3 independent measurements at each probe concentration. The resulting binding curve was fit to the following equation (modified from the One site—Total, accounting for ligand depletion model) in Graphpad Prism 9 (San Diego, CA, USA), from which the Kd was determined.
Fluorescence Spectra with αS Fibrils
as §2, with “5k” for “7k, 7l, and 7m”, “with” for “with λex/λem=424/570 nm for 7k,”, “5k,” for “7l, and λex/λem=484/620 nm for 7m,”

[6] = target: T1, αS fibrils; test: Fractionation (total, supernatant, pellet) of αS fibrils with probe; format: binding; conditions: T, S, P fractions
[7] = 25 μM in ACN/PBS buffer (1:1 v/v), pH 7.4

Question: For `Cc1c(C)n2c(/C=C/c3ccc(N)cc3)c(C)c(=O)n2c1=O` [Compound 7j, (E)-3-(4-aminostyryl)-2,5,6-trimethyl-1H,7H-pyrazolo[1,2-a]pyrazole-1,7-dione], which λabs ([1]; absence of αS PFFs) is on record?
Answer: 372 nm

Question: What about the ε ([1]; absence of αS PFFs) of the same compound?
Answer: 15385 M⁻¹ cm⁻¹

Question: What about the “λabs, maximum absorption wavelength” value [1] of the same compound?
Answer: 359 nm

Question: What about the “E, molar absorptivity (ε)” value [1] of the same compound?
Answer: 45956 M⁻¹ cm⁻¹

Question: And the λabs ([1]; presence of αS PFFs, PFF 50 μM)?
Answer: 359 nm

Question: What about the ε ([1]; presence of αS PFFs) of the same compound?
Answer: 45956 M⁻¹ cm⁻¹

Question: And the “increase in molar absorptivity with αS fibrils” value [1]?
Answer: 3 fold

Question: What about the “λex, maximum excitation wavelength” value [2] of the same compound?
Answer: 435 nm

Question: What about the λex [2] of the same compound?
Answer: 435 nm

Question: And the “Absorbance λmax” value ([3]; 25 μM in ACN)?
Answer: 378 nm

Question: What about the “Absorbance λmax” value [3, 7] of the same compound?
Answer: 385 nm

Question: What about the “Absorbance Wavelength” value ([3]; Table S14) of the same compound?
Answer: 385 nm

Question: And the “λabs, maximum absorption wavelength” value [3]?
Answer: 372 nm

Question: For `Cc1c(C)n2c(/C=C/c3ccc(N4CCOCC4)cc3)c(C)c(=O)n2c1=O` [Compound 7k, (E)-2,3,6-trimethyl-5-(4-morpholinostyryl)-1H,7H-pyrazolo[1,2-a]pyrazole-1,7-dione], which “increase in fluorescence intensity with % glycerol” value ([4]; glycerol/MeOH mixtures) is on record?
Answer: > 6 fold

Question: And the “red-shift with % glycerol” value ([4]; glycerol/MeOH mixtures)?
Answer: 12 nm

Question: What about the Kd [5] of the same compound?
Answer: 2.45 ± 1.24 µM

Question: And the λabs ([1]; absence of αS PFFs)?
Answer: 370 nm

Question: And the ε ([1]; absence of αS PFFs)?
Answer: 17205 M⁻¹ cm⁻¹

Question: What about the λabs ([1]; presence of αS PFFs, PFF 50 μM) of the same compound?
Answer: 356 nm

Question: What about the ε ([1]; presence of αS PFFs) of the same compound?
Answer: 49869 M⁻¹ cm⁻¹

Question: What about the λex [2] of the same compound?
Answer: 424 nm

Question: What about the “Absorbance λmax” value ([3]; 25 μM in ACN) of the same compound?
Answer: 378 nm

Question: And the “Absorbance λmax” value [3, 7]?
Answer: 386 nm

Question: What does the source list for `Cc1c(C)n2c(/C=C/c3ccc(N(C)C)cc3)c(C)c(=O)n2c1=O` [Compound 7l, (E)-3-(4-(dimethylamino)styryl)-2,5,6-trimethyl-1H,7H-pyrazolo[1,2-a]pyrazole-1,7-dione]?
Answer: increase in fluorescence intensity with increased % glycerol ([4]; ethylene glycol/glycerol mixtures): 3.7 fold; Kd [5]: 1.45 ± 0.43 µM; λabs ([1]; absence of αS PFFs): 393 nm; ε ([1]; absence of αS PFFs): 20071 M⁻¹ cm⁻¹; λabs, maximum absorption wavelength [1]: 386 nm; E, molar absorptivity (ε) [1]: 43864 M⁻¹ cm⁻¹; λabs ([1]; presence of αS PFFs, PFF 50 μM): 386 nm; ε ([1]; presence of αS PFFs): 43864 M⁻¹ cm⁻¹; increase in molar absorptivity with αS fibrils [1]: 2.2 fold; λex, maximum excitation wavelength [2]: 463 nm; λex [2]: 463 nm; fractionation of αS fibrils with probe [6]: selectively binds to the fibrils; Absorbance λmax ([3]; 25 μM in ACN): 402 nm; Absorbance λmax [3, 7]: 418 nm; λabs [3]: 418 nm; Absorbance Wavelength ([3]; Table S14): 418 nm; λabs, maximum absorption wavelength [3]: 393 nm

Question: With `Cc1c(C)n2c(/C=C/C=C/c3ccc(N(C)C)cc3)c(C)c(=O)n2c1=O` [Compound 7m, 3-((1E,3E)-4-(4-(dimethylamino)phenyl)buta-1,3-dien-1-yl)-2,5,6-trimethyl-1H,7H-pyrazolo[1,2-a]pyrazole-1,7-dione] as the compound, how does the Kd [5] read?
Answer: 0.42 ± 0.25 µM

Question: What about the λabs ([1]; absence of αS PFFs) of the same compound?
Answer: 416 nm

Question: What about the ε ([1]; absence of αS PFFs) of the same compound?
Answer: 19024 M⁻¹ cm⁻¹

Question: What about the λabs ([1]; presence of αS PFFs, PFF 50 μM) of the same compound?
Answer: 412 nm

Question: And the ε ([1]; presence of αS PFFs)?
Answer: 52234 M⁻¹ cm⁻¹

Question: And the λex [2]?
Answer: 484 nm

Question: And the “fractionation of αS fibrils with probe” value [6]?
Answer: retained its fluorescence in the pellet fraction more than 2a

Question: What about the “Absorbance λmax” value ([3]; 25 μM in ACN) of the same compound?
Answer: 410 nm

Question: And the “Absorbance λmax” value [3, 7]?
Answer: 436 nm

Question: What about the λabs [3] of the same compound?
Answer: 436 nm

Question: What about the “Absorbance Wavelength” value ([3]; Table 11) of the same compound?
Answer: 418 nm
